A short description of assay [1]: cells. As to conditions: Homo sapiens, Cal27CisR.
Description: Inhibition of class I/6 HDAC (unknown origin) in cisplatin resistant human Cal27CisR cells using Boc-Lys(epsilon-Ac)-AMC as substrate preincubated with compound for 18 hrs followed by substrate addition and measured after 3 hrs by NOVOstar microplate reader analysis
For assay [2], the system named is Cal27CisR. The assay is described as follows: Cytotoxicity against cisplatin resistant human Cal27CisR cells at < 10 uM assessed as reduction in cell viability incubated for 72 hrs by MTT assay. Type of assay: functional, cell-based.
In the next assay the target is Histone deacetylase 4 (Homo sapiens, UniProt P56524). The assay is described as follows: Inhibition of recombinant HDAC4 (unknown origin) using Bos-Lys(TFA)-AMC as substrate preincubated with compound for 5 mins and measured after 90 mins by NOVOstar microplate reader analysis.
Sequence of Histone deacetylase 4 (P56524 whole entry): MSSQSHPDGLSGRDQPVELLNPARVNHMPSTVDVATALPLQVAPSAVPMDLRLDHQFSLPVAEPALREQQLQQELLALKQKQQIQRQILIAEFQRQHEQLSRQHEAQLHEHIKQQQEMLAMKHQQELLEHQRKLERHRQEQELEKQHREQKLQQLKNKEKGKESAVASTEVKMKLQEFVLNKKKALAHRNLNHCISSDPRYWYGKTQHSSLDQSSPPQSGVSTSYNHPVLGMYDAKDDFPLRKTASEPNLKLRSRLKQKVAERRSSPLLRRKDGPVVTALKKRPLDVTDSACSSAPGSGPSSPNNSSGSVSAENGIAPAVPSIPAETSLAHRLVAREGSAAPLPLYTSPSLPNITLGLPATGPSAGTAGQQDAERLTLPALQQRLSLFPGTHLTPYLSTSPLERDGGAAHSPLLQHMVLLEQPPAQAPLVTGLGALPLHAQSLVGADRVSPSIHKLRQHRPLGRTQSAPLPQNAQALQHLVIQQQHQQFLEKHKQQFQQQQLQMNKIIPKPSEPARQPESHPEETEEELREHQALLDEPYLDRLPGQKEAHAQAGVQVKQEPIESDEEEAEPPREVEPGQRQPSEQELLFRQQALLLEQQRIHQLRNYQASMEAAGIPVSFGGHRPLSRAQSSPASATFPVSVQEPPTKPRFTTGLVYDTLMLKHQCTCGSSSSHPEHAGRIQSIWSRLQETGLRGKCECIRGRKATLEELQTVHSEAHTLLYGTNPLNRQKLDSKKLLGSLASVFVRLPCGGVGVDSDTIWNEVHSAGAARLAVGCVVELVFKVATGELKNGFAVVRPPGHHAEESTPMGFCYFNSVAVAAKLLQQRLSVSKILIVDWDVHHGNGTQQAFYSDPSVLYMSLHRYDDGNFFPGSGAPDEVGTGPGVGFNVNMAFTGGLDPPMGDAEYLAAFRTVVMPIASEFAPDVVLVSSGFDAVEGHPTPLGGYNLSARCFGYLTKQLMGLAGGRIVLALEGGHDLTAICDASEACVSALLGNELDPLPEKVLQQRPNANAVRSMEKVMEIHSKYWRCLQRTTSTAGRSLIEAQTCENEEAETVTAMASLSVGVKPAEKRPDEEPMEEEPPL
A further assay has as its target T1, Histone deacetylase 8 (Homo sapiens, UniProt Q9BY41).
T1 sequence (Q9BY41 whole entry): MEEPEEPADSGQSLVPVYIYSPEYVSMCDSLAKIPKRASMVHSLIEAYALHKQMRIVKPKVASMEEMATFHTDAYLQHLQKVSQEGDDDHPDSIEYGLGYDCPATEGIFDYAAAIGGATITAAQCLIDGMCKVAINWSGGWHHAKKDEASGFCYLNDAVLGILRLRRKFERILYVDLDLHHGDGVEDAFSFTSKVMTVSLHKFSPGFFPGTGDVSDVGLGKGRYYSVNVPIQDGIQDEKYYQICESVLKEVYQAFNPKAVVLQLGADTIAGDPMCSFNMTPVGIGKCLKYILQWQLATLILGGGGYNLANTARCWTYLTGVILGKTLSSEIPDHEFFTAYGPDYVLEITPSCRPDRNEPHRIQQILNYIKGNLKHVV
In words: Inhibition of recombinant HDAC8 (unknown origin) using Bos-Lys(TFA)-AMC as substrate preincubated with compound for 5 mins and measured after 90 mins by NOVOstar microplate reader analysis.

Another assay relates to A2780cisR. The assay is described as follows: Cytotoxicity against cisplatin resistant human A2780 cisR cells at < 100 uM assessed as reduction in cell viability incubated for 72 hrs by MTT assay. Type of assay: functional, cell-based.
The target of assay [3] is T2, Protein deacetylase HDAC6 (Homo sapiens) (UniProt Q9UBN7).
T2 sequence (whole entry): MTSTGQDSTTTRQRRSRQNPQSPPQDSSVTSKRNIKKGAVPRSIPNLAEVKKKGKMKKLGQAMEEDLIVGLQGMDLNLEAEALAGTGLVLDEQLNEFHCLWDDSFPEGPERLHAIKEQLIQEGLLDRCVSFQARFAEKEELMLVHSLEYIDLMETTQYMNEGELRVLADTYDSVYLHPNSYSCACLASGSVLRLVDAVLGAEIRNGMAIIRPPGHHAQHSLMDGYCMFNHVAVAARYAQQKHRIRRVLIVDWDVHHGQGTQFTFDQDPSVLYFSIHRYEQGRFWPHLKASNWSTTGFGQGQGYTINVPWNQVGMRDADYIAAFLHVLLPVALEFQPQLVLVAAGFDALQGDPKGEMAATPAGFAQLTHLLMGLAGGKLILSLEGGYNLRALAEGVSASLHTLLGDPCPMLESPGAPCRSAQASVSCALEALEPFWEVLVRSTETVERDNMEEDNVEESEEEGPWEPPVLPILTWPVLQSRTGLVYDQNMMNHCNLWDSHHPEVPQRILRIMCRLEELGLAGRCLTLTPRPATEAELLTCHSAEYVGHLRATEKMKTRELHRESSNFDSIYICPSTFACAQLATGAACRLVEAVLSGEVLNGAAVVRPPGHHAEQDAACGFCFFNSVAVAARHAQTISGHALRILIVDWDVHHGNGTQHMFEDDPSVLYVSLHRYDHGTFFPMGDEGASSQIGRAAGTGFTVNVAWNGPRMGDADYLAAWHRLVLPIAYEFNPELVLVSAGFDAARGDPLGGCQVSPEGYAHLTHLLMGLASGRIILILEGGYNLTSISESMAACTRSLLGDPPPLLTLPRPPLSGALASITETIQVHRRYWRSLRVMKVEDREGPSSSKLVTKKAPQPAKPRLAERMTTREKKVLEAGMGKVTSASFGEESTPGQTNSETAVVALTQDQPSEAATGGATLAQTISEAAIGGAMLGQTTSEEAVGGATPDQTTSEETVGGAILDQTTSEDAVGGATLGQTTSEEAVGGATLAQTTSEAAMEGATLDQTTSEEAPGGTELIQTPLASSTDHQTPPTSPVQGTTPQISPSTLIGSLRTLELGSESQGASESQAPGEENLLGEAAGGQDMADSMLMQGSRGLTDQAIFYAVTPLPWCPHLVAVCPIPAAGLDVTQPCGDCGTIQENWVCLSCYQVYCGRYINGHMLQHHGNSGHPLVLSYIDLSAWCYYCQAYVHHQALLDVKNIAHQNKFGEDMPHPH
The assay is described as follows: Inhibition of N-terminal GST-tagged full length recombinant human HDAC6 (1 to 1215 end residues) expressed in sf9 cells at 10 uM using ZMAL (Z-Lys(Ac)-AMC as fluorogenic substrate preincubated with compound for 60 mins followed by substrate addition and measured after 90 mins by fluorescence based microplate reader analysis relative to control. As to conditions: time 150.0 min.

In assay [4] the target is T3, Histone deacetylase 3/Nuclear receptor corepressor 2 (HDAC3/NCoR2) (Homo sapiens) (UniProt O15379+Q9Y618). The assay is described as follows: Inhibition of C-terminal His tagged human recombinant HDAC3 (1 to 428 end residues)/N-terminal GST-tagged human NcoR2 expressed in sf9 cells at 10 uM using ZMAL (Z-Lys(Ac)-AMC as fluorogenic substrate preincubated with compound for 60 mins followed by substrate addition and measured after 90 mins by fluorescence based microplate reader analysis relative to control. The settings on record: time 150.0 min.

A short description of assay [5]: cells. The settings on record: Homo sapiens, A2780cisR.
Description: Inhibition of class I/6 HDAC (unknown origin) in cisplatin resistant human A2780 cisR cells using Boc-Lys(epsilon-Ac)-AMC as substrate preincubated with compound for 18 hrs followed by substrate addition and measured after 3 hrs by NOVOstar microplate reader analysis
Another assay has as its target Histone deacetylase 1 (Homo sapiens, UniProt Q13547). The assay is described as follows: Inhibition of C-terminal 6-his/FLAG tagged full length human recombinant HDAC1 (1 to 482 end residues) expressed in sf9 cells at 10 uM using ZMAL (Z-Lys(Ac)-AMC as fluorogenic substrate preincubated with compound for 60 mins followed by substrate addition and measured after 90 mins by fluorescence based microplate reader analysis relative to control. As to conditions: time 150.0 min.

For assay [6], the system named is A2780. The assay is described as follows: Cytotoxicity against human A2780 cells at < 100 uM assessed as reduction in cell viability incubated for 72 hrs by MTT assay. Type of assay: functional, cell-based.
Assay [7] addresses T4, Histone deacetylase 8 (Homo sapiens) (UniProt Q9BY41).
T4 sequence (whole entry): T1 sequence (Q9BY41 whole entry)
In words: Inhibition of recombinant HDAC8 (unknown origin) at > 10 uM using Bos-Lys(TFA)-AMC as substrate preincubated with compound for 5 mins and measured after 90 mins by NOVOstar microplate reader analysis relative to control. The settings on record: time 95.0 min.

A short description of assay [8]: cells. As to conditions: Homo sapiens, CAL-27.
Description: Inhibition of class I/6 HDAC (unknown origin) in human CAL-27 cells using Boc-Lys(epsilon-Ac)-AMC as substrate preincubated with compound for 18 hrs followed by substrate addition and measured after 3 hrs by NOVOstar microplate reader analysis
The test system of assay [9] is CAL-27. In words: cells. The settings on record: Homo sapiens, CAL-27, 72 h.
Description: Cytotoxicity against human CAL-27 cells assessed as reduction in cell viability incubated for 72 hrs by MTT assay
The nature of assay [10]: cells. The settings on record: Homo sapiens, A2780.
Description: Inhibition of class I/6 HDAC (unknown origin) in human A2780 cells using Boc-Lys(epsilon-Ac)-AMC as substrate preincubated with compound for 18 hrs followed by substrate addition and measured after 3 hrs by NOVOstar microplate reader analysis
Assay [11] concerns the target Histone deacetylase 2 (Homo sapiens) (UniProt Q92769). The assay is described as follows: Inhibition of C-terminal FLAG tagged full length human recombinant HDAC2 (1 to 488 end residues) expressed in sf9 cells at 10 uM using ZMAL (Z-Lys(Ac)-AMC as fluorogenic substrate preincubated with compound for 60 mins followed by substrate addition and measured after 90 mins by fluorescence based microplate reader analysis relative to control. As to conditions: time 150.0 min.

Assay [12] has as its target T5, Protein deacetylase HDAC6 (Homo sapiens, UniProt Q9UBN7).
T5 sequence (Q9UBN7 whole entry): T2 sequence (whole entry)
In words: Inhibition of N-terminal GST-tagged full length recombinant human HDAC6 (1 to 1215 end residues) expressed in sf9 cells using ZMAL (Z-Lys(Ac)-AMC as fluorogenic substrate preincubated with compound for 60 mins followed by substrate addition and measured after 90 mins by fluorescence based microplate reader analysis.

For assay [13], the system named is A2780. The assay is described as follows: Inhibition of class I/6 HDAC (unknown origin) in human A2780 cells at < 100 uM using Boc-Lys(epsilon-Ac)-AMC as substrate preincubated with compound for 18 hrs followed by substrate addition and measured after 3 hrs by NOVOstar microplate reader analysis. Type of assay: cell-based.
Assay [14] relates to A2780. The assay is described as follows: cells. As to conditions: Homo sapiens, A2780, 72 h.
Description: Cytotoxicity against human A2780 cells assessed as reduction in cell viability incubated for 72 hrs by MTT assay
Assay [15] deals with T2, Protein deacetylase HDAC6 (Homo sapiens). In words: Inhibition of N-terminal GST-tagged full length recombinant human HDAC6 (1 to 1215 end residues) expressed in sf9 cells at > 10 uM using ZMAL (Z-Lys(Ac)-AMC as fluorogenic substrate preincubated with compound for 60 mins followed by substrate addition and measured after 90 mins by fluorescence based microplate reader analysis relative to control. The settings on record: time 150.0 min.

The target in assay [16] is Histone deacetylase 3/Nuclear receptor corepressor 2 (HDAC3/NCoR2) (Homo sapiens, UniProt O15379). Format: cell-based, Sf9.
Sequence of Histone deacetylase 3/Nuclear receptor corepressor 2 (HDAC3/NCoR2) (O15379 whole entry): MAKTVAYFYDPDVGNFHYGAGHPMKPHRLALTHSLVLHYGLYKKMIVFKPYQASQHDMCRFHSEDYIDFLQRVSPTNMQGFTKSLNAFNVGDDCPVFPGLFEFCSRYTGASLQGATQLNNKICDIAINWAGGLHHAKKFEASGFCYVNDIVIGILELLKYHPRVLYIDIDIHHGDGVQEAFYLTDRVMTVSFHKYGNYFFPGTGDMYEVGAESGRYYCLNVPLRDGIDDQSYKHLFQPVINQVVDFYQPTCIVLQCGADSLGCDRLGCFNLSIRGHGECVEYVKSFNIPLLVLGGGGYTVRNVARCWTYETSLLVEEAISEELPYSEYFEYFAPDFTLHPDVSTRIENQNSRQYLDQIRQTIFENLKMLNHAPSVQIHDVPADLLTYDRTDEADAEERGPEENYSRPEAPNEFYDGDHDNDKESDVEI
Sequence of Histone deacetylase 3/Nuclear receptor corepressor 2 (HDAC3/NCoR2) (Q9Y618 whole entry, further chain): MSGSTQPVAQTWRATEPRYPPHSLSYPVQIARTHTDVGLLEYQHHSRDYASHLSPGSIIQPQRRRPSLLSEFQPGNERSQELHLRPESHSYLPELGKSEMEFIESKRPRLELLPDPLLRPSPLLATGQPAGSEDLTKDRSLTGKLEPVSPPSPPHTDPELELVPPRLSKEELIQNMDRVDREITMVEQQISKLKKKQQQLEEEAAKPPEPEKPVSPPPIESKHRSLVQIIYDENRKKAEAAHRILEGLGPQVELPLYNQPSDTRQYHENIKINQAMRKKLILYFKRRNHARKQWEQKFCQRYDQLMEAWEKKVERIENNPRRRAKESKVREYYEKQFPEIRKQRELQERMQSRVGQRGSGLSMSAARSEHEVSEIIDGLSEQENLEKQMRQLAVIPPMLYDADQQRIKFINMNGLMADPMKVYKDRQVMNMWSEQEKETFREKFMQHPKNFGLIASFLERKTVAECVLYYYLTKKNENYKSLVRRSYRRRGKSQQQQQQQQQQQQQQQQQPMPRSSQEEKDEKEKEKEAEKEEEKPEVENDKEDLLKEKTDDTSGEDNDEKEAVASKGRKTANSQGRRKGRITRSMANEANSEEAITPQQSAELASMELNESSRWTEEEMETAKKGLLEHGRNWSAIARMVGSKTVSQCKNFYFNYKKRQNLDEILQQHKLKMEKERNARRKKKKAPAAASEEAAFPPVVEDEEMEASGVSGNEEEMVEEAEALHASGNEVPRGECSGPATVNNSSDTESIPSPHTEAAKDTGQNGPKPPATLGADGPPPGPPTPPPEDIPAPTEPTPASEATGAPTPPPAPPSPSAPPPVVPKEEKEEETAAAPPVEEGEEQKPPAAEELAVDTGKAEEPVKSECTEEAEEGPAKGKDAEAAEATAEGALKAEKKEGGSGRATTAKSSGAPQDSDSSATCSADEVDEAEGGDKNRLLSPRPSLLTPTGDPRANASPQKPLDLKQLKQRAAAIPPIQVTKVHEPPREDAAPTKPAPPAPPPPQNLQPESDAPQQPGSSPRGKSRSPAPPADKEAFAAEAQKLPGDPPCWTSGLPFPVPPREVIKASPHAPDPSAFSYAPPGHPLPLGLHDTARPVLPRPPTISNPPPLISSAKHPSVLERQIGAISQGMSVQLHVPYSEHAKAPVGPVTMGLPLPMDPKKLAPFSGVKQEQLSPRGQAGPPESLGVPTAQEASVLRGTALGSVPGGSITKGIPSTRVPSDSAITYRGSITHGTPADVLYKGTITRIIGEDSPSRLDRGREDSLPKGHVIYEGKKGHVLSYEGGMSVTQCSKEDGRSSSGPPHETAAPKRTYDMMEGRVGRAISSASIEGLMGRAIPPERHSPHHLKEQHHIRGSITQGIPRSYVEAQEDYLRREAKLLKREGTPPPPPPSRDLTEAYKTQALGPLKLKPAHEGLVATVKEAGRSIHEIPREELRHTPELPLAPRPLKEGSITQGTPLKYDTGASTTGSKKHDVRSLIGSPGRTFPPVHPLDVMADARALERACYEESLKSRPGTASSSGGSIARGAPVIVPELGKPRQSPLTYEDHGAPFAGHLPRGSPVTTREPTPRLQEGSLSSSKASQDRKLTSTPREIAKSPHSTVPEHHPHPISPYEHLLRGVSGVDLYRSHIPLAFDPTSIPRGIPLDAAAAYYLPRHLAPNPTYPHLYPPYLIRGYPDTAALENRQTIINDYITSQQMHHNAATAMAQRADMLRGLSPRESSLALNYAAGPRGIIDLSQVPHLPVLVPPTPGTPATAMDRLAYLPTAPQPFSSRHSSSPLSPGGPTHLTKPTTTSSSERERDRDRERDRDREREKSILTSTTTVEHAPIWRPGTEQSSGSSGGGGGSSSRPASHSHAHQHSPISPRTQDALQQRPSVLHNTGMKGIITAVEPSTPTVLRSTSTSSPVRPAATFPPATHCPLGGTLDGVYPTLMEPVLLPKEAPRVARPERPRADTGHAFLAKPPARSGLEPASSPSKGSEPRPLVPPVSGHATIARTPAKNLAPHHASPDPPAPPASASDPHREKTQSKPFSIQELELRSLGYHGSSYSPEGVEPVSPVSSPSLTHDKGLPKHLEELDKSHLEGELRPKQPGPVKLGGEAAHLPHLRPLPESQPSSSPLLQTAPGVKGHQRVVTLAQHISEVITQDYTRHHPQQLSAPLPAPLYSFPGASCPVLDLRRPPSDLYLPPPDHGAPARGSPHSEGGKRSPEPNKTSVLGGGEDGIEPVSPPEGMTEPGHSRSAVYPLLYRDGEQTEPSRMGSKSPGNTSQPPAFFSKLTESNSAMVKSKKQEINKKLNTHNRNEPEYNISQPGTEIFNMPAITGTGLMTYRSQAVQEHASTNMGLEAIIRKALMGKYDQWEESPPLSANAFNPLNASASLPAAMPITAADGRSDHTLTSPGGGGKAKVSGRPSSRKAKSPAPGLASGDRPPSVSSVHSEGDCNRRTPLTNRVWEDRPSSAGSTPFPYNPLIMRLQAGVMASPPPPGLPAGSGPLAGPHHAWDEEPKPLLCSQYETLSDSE
For assay [17], the system named is CAL-27. In words: Cytotoxicity against human CAL-27 cells at < 100 uM assessed as reduction in cell viability incubated for 72 hrs by MTT assay. Type of assay: functional, cell-based.
In assay [18] the target is T3, Histone deacetylase 3/Nuclear receptor corepressor 2 (HDAC3/NCoR2) (Homo sapiens). The assay is described as follows: Inhibition of C-terminal His tagged human recombinant HDAC3 (1 to 428 end residues)/N-terminal GST-tagged human NcoR2 expressed in sf9 cells at > 10 uM using ZMAL (Z-Lys(Ac)-AMC as fluorogenic substrate preincubated with compound for 60 mins followed by substrate addition and measured after 90 mins by fluorescence based microplate reader analysis relative to control. The settings on record: time 150.0 min.

The test system of assay [19] is A2780 cisR. The assay is described as follows: Inhibition of class I/6 HDAC (unknown origin) in cisplatin resistant human A2780 cisR cells at < 100 uM using Boc-Lys(epsilon-Ac)-AMC as substrate preincubated with compound for 18 hrs followed by substrate addition and measured after 3 hrs by NOVOstar microplate reader analysis. Type of assay: cell-based.
Assay [20] concerns Cal27CisR. The assay is described as follows: Inhibition of class I/6 HDAC (unknown origin) in cisplatin resistant human Cal27CisR cells at < 10 uM using Boc-Lys(epsilon-Ac)-AMC as substrate preincubated with compound for 18 hrs followed by substrate addition and measured after 3 hrs by NOVOstar microplate reader analysis. Type of assay: cell-based.
Assay [21] concerns the target Histone deacetylase 2 (Homo sapiens) (UniProt Q92769). The assay is described as follows: Inhibition of C-terminal FLAG tagged full length human recombinant HDAC2 (1 to 488 end residues) expressed in sf9 cells at > 10 uM using ZMAL (Z-Lys(Ac)-AMC as fluorogenic substrate preincubated with compound for 60 mins followed by substrate addition and measured after 90 mins by fluorescence based microplate reader analysis relative to control.

Assay [22] concerns CAL-27. In words: Inhibition of class I/6 HDAC (unknown origin) in human CAL-27 cells at < 10 uM using Boc-Lys(epsilon-Ac)-AMC as substrate preincubated with compound for 18 hrs followed by substrate addition and measured after 3 hrs by NOVOstar microplate reader analysis. Format: cell-based.
The subject of assay [23] is A2780 cisR. In words: Inhibition of class I/6 HDAC (unknown origin) in cisplatin resistant human A2780 cisR cells at < 10 uM using Boc-Lys(epsilon-Ac)-AMC as substrate preincubated with compound for 18 hrs followed by substrate addition and measured after 3 hrs by NOVOstar microplate reader analysis. Format: cell-based.
The subject of assay [24] is A2780. The assay is described as follows: Inhibition of class I/6 HDAC (unknown origin) in human A2780 cells at < 10 uM using Boc-Lys(epsilon-Ac)-AMC as substrate preincubated with compound for 18 hrs followed by substrate addition and measured after 3 hrs by NOVOstar microplate reader analysis. Type of assay: cell-based.

From ChEMBL document CHEMBL6120974, “Hydrazide-Based Class I Selective HDAC Inhibitors Completely Reverse Chemoresistance Synergistically in Platinum-Resistant Solid Cancer Cells” (J Med Chem, 2024) come the findings set out here.

Calls of active or inactive are those of the source. No cut-off for these calls is given here. Bounds are passed on as bounds.

Sequence of Histone deacetylase 1 (Q13547 whole entry): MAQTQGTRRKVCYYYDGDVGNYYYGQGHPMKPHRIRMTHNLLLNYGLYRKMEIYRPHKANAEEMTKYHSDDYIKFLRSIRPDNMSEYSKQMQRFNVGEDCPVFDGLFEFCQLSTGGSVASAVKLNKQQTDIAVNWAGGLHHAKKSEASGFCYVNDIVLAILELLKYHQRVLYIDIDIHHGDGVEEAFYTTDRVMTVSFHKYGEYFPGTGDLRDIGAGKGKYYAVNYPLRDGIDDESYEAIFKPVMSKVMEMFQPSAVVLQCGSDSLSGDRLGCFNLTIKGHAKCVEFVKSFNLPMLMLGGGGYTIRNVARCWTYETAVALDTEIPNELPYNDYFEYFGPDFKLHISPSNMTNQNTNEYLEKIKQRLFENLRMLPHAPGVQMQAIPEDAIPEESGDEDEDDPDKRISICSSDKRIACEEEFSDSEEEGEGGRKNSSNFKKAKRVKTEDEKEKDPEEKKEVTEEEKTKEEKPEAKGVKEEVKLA
Sequence of Histone deacetylase 2 (Homo sapiens) (Q92769 whole entry): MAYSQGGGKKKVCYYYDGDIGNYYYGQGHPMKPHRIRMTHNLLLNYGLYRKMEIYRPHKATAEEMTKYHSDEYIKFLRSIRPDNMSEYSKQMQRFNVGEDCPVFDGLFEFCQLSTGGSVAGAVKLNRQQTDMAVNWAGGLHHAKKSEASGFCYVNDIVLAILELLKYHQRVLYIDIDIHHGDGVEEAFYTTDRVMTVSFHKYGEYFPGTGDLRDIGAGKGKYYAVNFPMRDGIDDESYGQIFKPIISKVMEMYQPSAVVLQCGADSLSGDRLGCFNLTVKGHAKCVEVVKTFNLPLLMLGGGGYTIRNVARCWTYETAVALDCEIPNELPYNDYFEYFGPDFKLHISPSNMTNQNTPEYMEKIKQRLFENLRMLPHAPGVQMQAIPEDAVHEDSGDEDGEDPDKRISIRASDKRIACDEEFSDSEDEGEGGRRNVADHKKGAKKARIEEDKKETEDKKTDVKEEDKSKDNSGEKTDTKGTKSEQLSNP

Broadly, the IC50 is the concentration that inhibits the measured activity by half. A word on the inhibition: it is the relative decrease from the control value, in per cent. Consider `CN(C)c1ccc(C(=O)N(CC(=O)NCc2ccccc2)Cc2ccc(C(=O)NN)cc2)cc1`, for which the IC50 in the assay “cells [1]” is 35.9 µM; at Histone deacetylase 4, greater than 10 µM; at Histone deacetylase 8, greater than 10 µM; in the assay “cells [5]” it was 37.7 µM; in the assay “cells [8]”, 30.9 µM; in the assay with CAL-27 [9] it was 63.5 µM. Also, half-maximal inhibition in the assay “cells [10]” (IC50) was put at 33.1 µM. For the same molecule, the outcome in the assay on Cal27CisR [2], with A2780cisR and with A2780 [6] was inactive. The inhibition in [3] was 55%; in [4], 57%; at Histone deacetylase 1, 62%; in assay [7], less than 25%; in assay [11], 53%.

For `CN(C)c1ccc(C(=O)N(CC(=O)NCc2ccccc2)Cc2ccc(C(=O)NNCCC(C)(C)C)cc2)cc1`, the IC50 in “cells [1]” is 43.6 µM; at Histone deacetylase 4, greater than 10 µM; in assay [12], greater than 10 µM; at Histone deacetylase 8, greater than 10 µM; with A2780 [14] it was 70.2 µM; in the assay “cells [8]”, 83.4 µM. The molecule also yielded an IC50 in assay [16] greater than 10 µM. The outcome in the assay with Cal27CisR [2], in the assay with A2780cisR and with CAL-27 [17] was inactive. Moreover, the inhibition entry in the assay on A2780 [13] and in the assay on A2780 cisR [19] was “inactive” in each case. Also, the inhibition is 63% on Histone deacetylase 1; less than 25% in assay [7]; less than 25% in assay [15]; less than 25% in [18]; 46% in assay [11].

With `CN(C)c1ccc(C(=O)N(CC(=O)NCc2ccccc2)Cc2ccc(C(=O)NNC/C=C/c3ccccc3)cc2)cc1`, the outcome with Cal27CisR [2], in the assay with A2780cisR, with A2780 [6] and in the assay with CAL-27 [17] was inactive. Besides, the IC50 (on Histone deacetylase 4; in assay [12]; at Histone deacetylase 8) was greater than 10 µM throughout. For the same molecule, the inhibition result in the assay with Cal27CisR [20], in the assay with CAL-27 [22], with A2780 cisR [23] and in the assay with A2780 [24] was “inactive” throughout. Further, the inhibition in assay [4] is 32%; in assay [21], less than 25%; on Histone deacetylase 1, 37%; in assay [7], less than 25%; in assay [15] it was less than 25%.
